Molecules are shown by their SMILES.

For orientation: IC50 means the concentration needed to halve the response being measured.

The target in this experiment is PIK3CD (Human) (UniProt O00329). Briefly: Enzyme Assay.
Chain of PIK3CD (Human) (O00329 whole entry, looked up): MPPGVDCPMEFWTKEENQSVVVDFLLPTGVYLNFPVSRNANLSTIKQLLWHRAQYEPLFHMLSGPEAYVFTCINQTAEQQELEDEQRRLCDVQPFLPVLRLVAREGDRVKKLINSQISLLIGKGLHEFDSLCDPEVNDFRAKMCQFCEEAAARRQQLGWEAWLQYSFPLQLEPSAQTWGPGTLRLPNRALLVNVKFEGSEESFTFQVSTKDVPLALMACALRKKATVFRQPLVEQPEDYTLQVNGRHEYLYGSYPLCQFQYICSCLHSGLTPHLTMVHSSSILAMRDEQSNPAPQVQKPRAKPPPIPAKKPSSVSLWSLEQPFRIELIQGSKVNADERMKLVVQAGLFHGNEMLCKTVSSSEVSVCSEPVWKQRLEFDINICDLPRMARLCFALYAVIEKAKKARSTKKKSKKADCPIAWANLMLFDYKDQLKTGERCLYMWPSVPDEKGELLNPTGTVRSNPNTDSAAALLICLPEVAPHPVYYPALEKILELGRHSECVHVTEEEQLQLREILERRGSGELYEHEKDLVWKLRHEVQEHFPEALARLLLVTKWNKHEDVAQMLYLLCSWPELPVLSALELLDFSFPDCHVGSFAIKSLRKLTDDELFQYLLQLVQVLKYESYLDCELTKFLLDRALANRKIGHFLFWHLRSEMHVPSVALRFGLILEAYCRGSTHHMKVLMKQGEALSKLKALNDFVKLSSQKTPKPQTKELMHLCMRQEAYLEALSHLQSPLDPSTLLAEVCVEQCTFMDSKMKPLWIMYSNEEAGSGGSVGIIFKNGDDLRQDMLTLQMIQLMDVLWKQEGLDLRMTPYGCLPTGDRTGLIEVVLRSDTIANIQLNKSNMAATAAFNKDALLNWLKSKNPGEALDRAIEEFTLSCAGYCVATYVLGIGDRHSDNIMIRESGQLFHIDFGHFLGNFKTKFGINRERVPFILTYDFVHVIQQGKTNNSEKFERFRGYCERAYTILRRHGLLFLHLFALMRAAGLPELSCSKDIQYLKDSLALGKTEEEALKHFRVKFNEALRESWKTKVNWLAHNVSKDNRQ
The molecule `CCn1ncc(-c2nc3c(O[C@H]4CCN(C(=O)c5oncc5C)C4)ncnc3n2C)c1C` came in with an IC50 of 5.1 nM.

Turning to `CCn1c(C(=O)NCC(F)(F)F)nc2c(O[C@H]3CCC(C(=O)N4CC(OC)C4)C3)ncnc21` (stereo partly drawn), the IC50 stood at 9.9 nM.

Take `CCn1ncc(-c2nc3c(O[C@H]4CCN(C(=O)c5cccc6ccccc56)C4)ncnc3n2C)c1C`: the IC50 stood at 67 nM.

Turning to `CCn1ncc(-c2nc3c(O[C@H]4CCN(C(=O)c5ccn[nH]5)C4)ncnc3n2C)c1C`, the IC50 was found to be 3 nM.

As for `CCC(=O)N1CC[C@H](Oc2ncnc3c2nc(-c2ccc(Cl)nc2)n3C)C1`, the IC50 is 16 nM.

The molecule `CCn1ncc(-c2nc3c(O[C@H]4CCN(C(=O)c5cc6n(n5)CCC6)C4)ncnc3n2C)c1C` gave a 50% inhibitory concentration (IC50) of 76 nM.

Turning to `CCC(=O)N1CC[C@H](Oc2ncnc3c2nc(-c2ccc(OC)c(F)c2)n3C)C1`, the IC50 was found to be 6.4 nM.

Regarding `CCn1c(-c2cnc3[nH]ccc3c2)nc2c(O[C@H]3CCN(C(=O)C4CC4)C3)ncnc21`, the IC50 was under 1 nM.

The molecule `CCC(=O)N1CC[C@H](Oc2ncnc3c2nc(-c2cnc(C(C)(C)C)s2)n3C)C1` registered an IC50 of 1.6 nM.

In turn, `CCn1c(-c2cnc(OC)c(C#N)c2)nc2c(O[C@H]3CCN(C(=O)C4CC4)C3)ncnc21` came in with an IC50 of 2.4 nM.

In turn, `CCn1c(-c2cnc(C)nc2)nc2c(O[C@H]3CCN(C(=O)N4CC(O)C4)C3)ncnc21` yielded an IC50 of 4.3 nM.

For the molecule `CCn1ncc(-c2nc3c(O[C@H]4CCN(C(=O)Nc5cccc(C)c5)C4)ncnc3n2C)c1C`, the IC50 worked out at 650 nM.

Turning to `Cc1ncc(-c2nc3c(O[C@H]4CCN(C(=O)OC(C)(C)C)C4)ncnc3n2C)n1C`, the IC50 worked out at 28 nM.

On to `CCn1ncc(-c2nc3c(S[C@H]4CCN(c5ccncn5)C4)ncnc3n2C)c1C`, for which the IC50 is 6 nM.

Turning to `CCn1ncc(-c2nc3c(O[C@H]4CCN(c5ccccn5)C4)ncnc3n2C)c1C`, the IC50 turned out to be 680 nM.

Turning to `CCn1c(-c2cnc(OC)c(F)c2)nc2c(O[C@H]3CCN(C(=O)c4ccn(C)n4)C3)ncnc21`, the IC50 is under 1 nM.

The molecule `CCC(=O)N1CC[C@H](Oc2ncnc3c2nc(-c2cnc(OC)c(NS(C)(=O)=O)c2)n3C)C1` came in with an IC50 of 2 nM.

`CCn1ncc(-c2nc3c(O[C@H]4CCN(C(=O)c5cnoc5C)C4)ncnc3n2C)c1C` registered an IC50 of 36 nM.

Regarding `CCn1ncc(-c2nc3c(O[C@H]4CCN(C(=O)c5nnc6n5CCCC6)C4)ncnc3n2C)c1C`, the IC50 turned out to be 240 nM.

In the case of `CCn1c(-c2cnc(OC)c(F)c2)nc2c(O[C@H]3CCN(C(=O)C(C)C)C3)ncnc21`, the IC50 was under 1 nM.

In turn, `CCn1c(-c2cnc(C)nc2)nc2c(O[C@H]3CC[C@@H](NC(=O)C4CC4)CC3)ncnc21` showed an IC50 of 120 nM.

In turn, `CCC(=O)N1CC[C@H](Oc2ncnc3c2nc(-c2cnn(C(C)(C)C)c2)n3C)C1` registered an IC50 of 4.7 nM.

As to `CCn1c(-c2ccc(OC)nc2)nc2c(O[C@H]3CCN(C(=O)C4CC4)C3)ncnc21`, the IC50 is 1 nM.

`CCn1ncc(-c2nc3c(O[C@H]4CCN(C(=O)NC(C)(C)CC(C)(C)C)C4)ncnc3n2C)c1C` registered an IC50 of 4.7 nM.

With `CCn1c(-c2cnc(C)nc2)nc2c(OC3(C)CCN(C(=O)C4CC4)C3)ncnc21` (stereo not drawn), the IC50 came out at 8.7 nM.

`CCn1ncc(-c2nc3c(OC4CN(C(=O)OC(C)(C)C)C4)ncnc3n2C)c1C` registered an IC50 of 85 nM.

Take `CCn1ncc(-c2nc3c(O[C@H]4CCN(C(=O)c5nnc(N(C)C)o5)C4)ncnc3n2C)c1C`: the IC50 worked out at 68 nM.

Turning to `CCn1c(-c2cnc(C)nc2)nc2c(O[C@H]3CCN(C(=O)N4CCC(CO)C4)C3)ncnc21` (stereo partly drawn), the IC50 came to 9.5 nM.

`CCn1c(-c2cnc(C)nc2)nc2c(O[C@H]3CCN(C(=O)C4CC4)C3)ncnc21` returned a half-inhibitory concentration (IC50) of 2.8 nM.

For the molecule `CCn1ncc(-c2nc3c(O[C@H]4CCN(c5ncnc6c5cnn6C)C4)ncnc3n2C)c1C`, the IC50 came out at 120 nM.

With `CCn1c(-c2cnc(C)nc2)nc2c(O[C@H]3CCN(C(=O)[C@H]4CC5CCN4C5)C3)ncnc21` (stereo partly drawn), the IC50 stood at 88 nM.

`CCn1ncc(-c2nc3c(OC4CCN(C(=O)C5CCCC5)CC4)ncnc3n2C)c1C` had an IC50 of 550 nM.

In turn, `CCn1c(C(=O)NCC2CC2)nc2c(O[C@H]3CCN(C(=O)OC(C)(C)C)C3)ncnc21` registered an IC50 of 150 nM.

With `CCn1ncc(-c2nc3c(O[C@H]4CCN(C(=O)c5cnn6ccccc56)C4)ncnc3n2C)c1C`, the IC50 stood at 130 nM.

For the molecule `CCn1ncc(-c2nc3c(O[C@H]4CCN(C(=O)c5c(C)noc5C)C4)ncnc3n2C)c1C`, the IC50 was determined as 88 nM.

Regarding `CCn1c(-c2cnc(C)nc2)nc2c(O[C@H]3CCN(C(=O)C4CC(C)C4)C3)ncnc21` (stereo partly drawn), the IC50 is 1.3 nM.

In turn, `CCn1ncc(-c2nc3c(S[C@H]4CCN(C(=O)C5CC5)C4)ncnc3n2C)c1C` came in with an IC50 of 3.8 nM.

`CCn1c(-c2cnc(C)nc2)nc2c(O[C@@H]3CN(C(=O)OC(C)(C)C)C[C@H]3F)ncnc21.CCn1c(-c2cnc(C)nc2)nc2c(O[C@H]3CN(C(=O)OC(C)(C)C)C[C@@H]3F)ncnc21` displayed an IC50 of 3.3 nM.

Molecule `COc1ncc(-c2nc3c(O[C@H]4CCN(C(=O)OC(C)(C)C)C4)ncnc3n2C)cc1C` had an IC50 of 2.6 nM.

For the molecule `CCn1ncc(-c2nc3c(O[C@H]4CCN(C(=O)c5nccn5C)C4)ncnc3n2C)c1C`, the IC50 is 35 nM.

Molecule `CCn1ncc(-c2nc3c(O[C@H]4CCN(C(=O)c5cc6ncccc6[nH]5)C4)ncnc3n2C)c1C` yielded an IC50 of 1900 nM.

Consider `CCn1c(-c2cnc(C)nc2)nc2c(O[C@H]3CCN(C(=O)CC(C)(C)N)C3)ncnc21`, for which the IC50 is 9.3 nM.

For `CCn1c(-c2ccc(OC)nc2)nc2c(O[C@H]3CCN(C(=O)C(C)C)C3)ncnc21`, the IC50 was determined as 2.1 nM.

The molecule `CCn1ncc(-c2nc3c(O[C@H]4CCN(C(=O)CC#N)C4)ncnc3n2C)c1C` registered an IC50 of 38 nM.

The molecule `Cc1n[nH]cc1-c1nc2c(O[C@H]3CCN(C(=O)OC(C)(C)C)C3)ncnc2n1C` gave an IC50 of 13 nM.

`CCn1c(-c2cnc(C)nc2)nc2c(O[C@H]3C[C@H](NS(=O)(=O)CC)C3)ncnc21` yielded an IC50 of 150 nM.

For `CCn1ncc(-c2nc3c(O[C@H]4CCN(C(=O)c5cccn5C)C4)ncnc3n2C)c1C`, the IC50 is 8.7 nM.

Consider `CCn1ncc(-c2nc3c(O[C@@H]4CC[C@H](n5c(=O)[nH]c6ncccc65)C4)ncnc3n2C)c1C`, for which the IC50 came to 120 nM.

On to `CCn1c(-c2cnc(C)nc2)nc2c(O[C@H]3CCN(C(=O)OCCN(C)C)C3)ncnc21`, for which the IC50 was 38 nM.

`CCn1ncc(-c2nc3c(S[C@H]4CCN(c5ncnc6sccc56)C4)ncnc3n2C)c1C` showed an IC50 of 5.5 nM.

In turn, `CCn1ncc(-c2nc3c(O[C@H]4CCN(c5cc(-n6cccn6)ncn5)C4)ncnc3n2C)c1C` had an IC50 of 216 nM.

On to `Cn1c(-c2ccc(O)cc2)nc2c(O[C@H]3CCN(C(=O)OC(C)(C)C)C3)ncnc21`, for which the IC50 amounted to 98 nM.

`CCOC(=O)N1CC[C@H](Sc2ncnc3c2nc(-c2cnn(CC)c2C)n3C)C1`: the IC50 is 37 nM.

Take `CCCn1c(-c2cnc(C)nc2)nc2c(O[C@H]3CCN(C(=O)CC)C3)ncnc21`: the IC50 was determined as 130 nM.

With `CCn1ncc(-c2nc3c(O[C@H]4CCN(C(=O)c5ocnc5C)C4)ncnc3n2C)c1C`, the IC50 is 15 nM.

As for `CCn1c(-c2cnc(C)nc2)nc2c(O[C@H]3CCN(c4cnccn4)C3)ncnc21`, the half-maximal inhibitory concentration (IC50) was determined as 32 nM.

As for `CCC(=O)N1CC[C@H](Oc2ncnc3c2nc(C2=CCOCC2)n3CC)C1`, the IC50 turned out to be 93 nM.

Consider `CCn1ncc(-c2nc3c(O[C@@H]4CC[C@H](NC(=O)OC(C)(C)C)C4)ncnc3n2C)c1C`, for which the IC50 came to 400 nM.

For the origin of these results see the Kinase Knowledgebase extract (Sharma et al. 2016).
